This is an account of results in patent US7060707B2, “Isoquinoline derivatives” (Merck Patent GmbH, priority 2002, dated 2006).

For the molecule `Cc1ccnc(NCCCCC(=O)NNC(=O)N2CCc3ccccc3C2CC(=O)O)c1` (stereo not shown) [Example 4], the melting point lay within 103 to 109 °C.
